Results taken from patent US5079376A, “Novel substance UCT-1003 and process for producing the same” (Kyowa Hakko Kogyo, Ltd., priority 1989, dated 1992).
≈ marks a conversion by molar mass, not a printed value.

Legend:
[1] = system: lymphocytic leukemia P388 tumor; assay: Anti-tumor activity against lymphocytic leukemia P388 tumor; type: in vivo, CDF1 mice; conditions: mean survival days vs PBS control
Description: Five male CDF1 mice each having a weight of about 22 g were used for each group as test animals, and 1×10^6 cells of lymphocytic leukemia P388 tumor cells were intraperitoneally implanted into the animals. Phosphate solution saline (PBS) containing UCT-1003 (0.2 ml) was once administered intraperitoneally 24 hours after the implantation of tumor cells. The composition of PBS was 0.8 g/dl NaCl, 0.02 g/dl KCl, […] Na2 HPO4 and 0.02 g/dl KH2 PO4 (pH 7.2). For comparison, 0.2 ml of PBS containing mitomycin C was intraperitoneally administered 24 hours after the implantation of tumor cells. Increased life span determined from mean survival days after the implantation is shown in Table 3 as T/C (T: mean survival days of the test groups, C: mean survival days of the control group which received 0.2 ml of PBS intraperitoneally).

[2] = system: Bacillus subtilis No. 10707; assay: Antibacterial activity (MIC), agar dilution method, Bacillus subtilis; type: cell-based; conditions: pH 7, read-out: minimum inhibitory concentration (MIC)
Description: (§1) The antibacterial activity was determined by the agar dilution method using a medium (pH 7) which comprises 3 g/l Bacto-Tryptone (Difco Laboratories), 3 g/l meat extract, 1 g/l yeast extract, 1 g/l glucose and 16 g/l agar.

[3] = system: Shigella sonnei ATCC 9290; assay: Antibacterial activity (MIC), agar dilution method, Shigella sonnei; type: cell-based; conditions: ATCC9290, pH 7, read-out: minimum inhibitory concentration (MIC)
Description: as §1

[4] = Solubility in solvents; type: physicochemical
[5] = system: HeLaS3 cells; assay: Anti-tumor activity against HeLaS3 cells (growth inhibition, Neutral Red); type: cell-based; conditions: Homo sapiens, HeLa S3, 72 hours
[6] = system: Escherichia coli ATCC 26; assay: Antibacterial activity (MIC), agar dilution method, Escherichia coli; type: cell-based; conditions: ATCC26, pH 7, read-out: minimum inhibitory concentration (MIC)
Description: as §1

[7] = system: Klebsiella pneumoniae ATCC 10031; assay: Antibacterial activity (MIC), agar dilution method, Klebsiella pneumoniae; type: cell-based; conditions: ATCC10031, pH 7, read-out: minimum inhibitory concentration (MIC)
Description: as §1

[8] = system: Staphylococcus aureus ATCC 6538P; assay: Antibacterial activity (MIC), agar dilution method, Staphylococcus aureus; type: cell-based; conditions: ATCC6538P, pH 7, read-out: minimum inhibitory concentration (MIC)
Description: as §1

[9] = system: Salmonella typhi ATCC 9992; assay: Antibacterial activity (MIC), agar dilution method, Salmonella typhi; type: cell-based; conditions: Salmonella enterica, pH 7, read-out: minimum inhibitory concentration (MIC)
Description: as §1

[10] = system: Enterococcus faecium ATCC 10541; assay: Antibacterial activity (MIC), agar dilution method, Enterococcus faecium; type: cell-based; conditions: ATCC10541, pH 7, read-out: minimum inhibitory concentration (MIC)
Description: as §1

[11] = system: T24 cells; assay: Anti-tumor activity against T24 cells (growth inhibition, Neutral Red); type: cell-based; conditions: Homo sapiens, T-24, 72 hours, 37° C.
Description: T24 cells were suspended in a medium comprising F10 medium (Gibco Co., Ltd.), 0.1 g/ml fetal calf serum, 100 units/ml penicillin and 100 ug/ml streptomycin (hereinafter referred to as medium A) to a concentration of 2×10^4 cells/ml. The cell suspension thus prepared was put into wells of a 96-well microtiter plate in the amount of 0.1 ml per well. After incubation at 37° C. for 20 hours in a CO2 -incubator, 0.05 ml of a test sample appropriately diluted with medium A was added to each well. The cells were further cultured at 37° C. for 72 hours in the CO2 -incubator and the culture supernatant was removed. To the residue was added a medium comprising medium A and 0.02% Neutral Red in the amount of 0.1 ml per well, followed by culturing at 37° C. for one hour in the CO2 -incubator, whereby the cells were stained. After removal of the culture supernatant, the residue was washed once with physiological saline.
The pigment was extracted with 0.001N hydrochloric acid/30% ethanol and absorbance at 550 nm was measured by using a microplate reader. The concentration of the test compound at which the growth of the cells is inhibited by 50% (IC50) was calculated by comparing the absorbance of untreated cells with those of the cells treated with the test compound at known concentrations.

Structure (SMILES)	Increased life span (T/C) ([1]; 4 mg/kg, i.p. 24 hours after i.p. implantation)	MIC [2]	MIC [3]	Solubility in solvents ([4]; chloroform and ethyl acetate)	Solubility in solvents ([4]; dimethylsulfoxide, pyridine, methanol, ethanol and acetone)	Solubility in solvents ([4]; water and n-hexane)	IC50 [5]	Increased life span (T/C) ([1]; 12.5 mg/kg, single i.p. 24 hours after i.p. implantation)	Increased life span (T/C) ([1]; 25 mg/kg, single i.p. 24 hours after i.p. implantation)	Increased life span (T/C) ([1]; 50 mg/kg, single i.p. 24 hours after i.p. implantation)	MIC [6]	MIC [7]	MIC [8]	MIC [9]	MIC [10]	IC50 [11]
CO[C@@]12[C@H](COC(N)=O)C3=C(C(=O)C(C)=C(N)C3=O)N1C[C@@H]1N[C@@H]12 [Mitomycin C, mitomycin C, reference compound]	1.57	–	–	–	–	–	–	–	–	–	–	–	–	–	–	–
O=C1c2cc(O)cc(O)c2C(=O)c2c1cc1cc(O)cc(O)c1c2O [UCT-1003]	–	83 µg/mL (≈ 245 µM)	> 100 µg/mL	soluble	Readily soluble	sparingly soluble	0.35 µg/mL (≈ 1.03 µM)	1.21	1.30	1.30	> 100 µg/mL	> 100 µg/mL	2.6 µg/mL (≈ 7.69 µM)	> 100 µg/mL	2.6 µg/mL (≈ 7.69 µM)	0.13 µg/mL (≈ 0.384 µM)
